Measured values from patent US20170304460A1, “METHOD OF CONJUGATING A POLYPEPTIDE” (MedImmune, LLC, priority 2014, published 2017).
Like-named read-outs stand apart in the source and are kept apart here.

How the values were obtained:
[1] = system: T289C mAb; assay: Conjugation kinetics of x-maleimide-PEG-biotins with T289C mAb; type: physicochemical; conditions: for Second order rate constant (k2): conjugation to T289C mAb
Protocol: x-Maleimide-PEG-biotins were conjugated to mAb (comprising a T289C mutation of the Fc) in several steps. […] Reduced mAb was transferred to a slide-a-lizer dialysis cassette (10K MWCO) and dialyzed against PBS, 1 mM EDTA, pH 7.2-7.8, 4° C. for 24 hr with several buffer changes. Reduced mAb was oxidized to reform internal disulfides by addition of dehydroascorbic acid (21 μL of 50 mM stock in DMSO, 1.1 μmol, 20 eq) followed by gentle mixing for 4 hr at room temperature. Oxidized mAb solution was adjusted to the desired pH by addition of 1M sodium phosphate (monobasic for pH 5.5, dibasic for pH 8.6, or a stock adjusted to pH 7.4) to a final phosphate concentration of 100 mM and mAb concentration of 1.3 mg/mL. Next, 1.15 mL of mAb solution (1.5 mg, 10 nmol, 1 eq) was aliquoted into a vial followed by addition of x-maleimide-PEG-biotin stock solution (2 μL of a 10 mM stock solution in DMAc, 20 nmol, 2 eq). The reaction mixture was briefly vortexed and further incubated for the desired amount of time followed by addition of N-acetly cysteine (10 μL of a 100 mM solution in water, 1 μmol, 100 eq) and further incubation for 15 minutes to quench unreacted maleimide. All conjugation reactions were performed at room temperature (22° C.) under ambient atmosphere. Note that 2 eq x-maleimide-PEG-biotin relative to mAb=1 eq x-maleimide-PEG-biotin relative to free cysteine contained in the mAb. This general procedure was modified as needed to achieve desired reaction stoichiometry (i.e. different maleimide:mAb feeds).
ADC samples were analyzed using an Agilent 6520B Q-TOF mass spectrometer equipped with a RP-HPLC column (Agilent Poroshell 300SB-C3; 5 um, 2.1 mm×75 mm; Part#660750-909). High-performance liquid chromatography (HPLC) parameters were as follows: flow rate, 0.4 ml/min; mobile phase A was 0.1% (v/v) formic acid in HPLC-grade H2O, and mobile phase B was 0.1% (v/v) formic acid in acetonitrile. The column was equilibrated in 90% A/10% B, which was also used to desalt the ADC samples, followed by elution in 40% A/60% B. Mass spec data were collected for 100-3000 m/z, positive polarity, a gas temperature of 350° C., a nebulizer pressure of 48 lb/in^2, and a capillary voltage of 5,000 V. Data were analyzed using vendor-supplied (Agilent v.B.04.00) MassHunter Qualitative Analysis software and peak intensities from deconvoluted spectra were used to derive the relative proportion of reactants and products; and reaction kinetics.
Half-lives were calculated from the derived rate constants using Equation 4 for pseudo-first order reactions (hydrolysis and deconjugation) and Equation 5 for second-order reactions (conjugation): […]
Conjugation data were analyzed in units of molar concentration to determine kinetic constants. Second order rate constants were determined from the slopes of curves generated from plotting 1/[SH] versus time and linear regression analysis.

[2] = Maleimide hydrolysis kinetics (pre-incubation in buffer, then reaction with T289C mAb); type: physicochemical; conditions: for half-life at 1 mM: sodium phosphate buffer, read-out: Hydrolysis T1/2 (maleimide) (converted)
Protocol: x-Maleimide-PEG-biotins were pre-incubated in buffer solutions of different pH to assess their stability and thiol conjugation efficiency over time. This assay indirectly monitors maleimide hydrolysis because hydrolyzed maleimides are not reactive towards thiols. Antibody bearing the T289C FC mutation was reduced and oxidized as described above and adjusted to 1.5 mg/mL in PBS containing 50 mM sodium phosphate pH 7.4. Maleimide solutions were prepared in buffer (100 mM sodium phosphate pH 5.5, 7.4, 8.6) by combining 20 μL x-maleimide-PEG-biotin solution (10 mM solution in DMAc) with 180 μL buffer at the desired pH (final x-maleimide-PEG-biotin concentration=1 mM) and incubated at 22° C. for determined time intervals prior to reaction with mAb. For conjugation reactions 267 μL mAb (1.5 mg/mL, 2.7 nmol, 1 eq) was combined with 5.3 μL buffer-incubated x-maleimide-PEG-biotin solution (5.4 nmol, 2 eq). […] The conjugation reaction proceeded at 22° C. for 1.5 hr at pH 7.4. After reaction samples were reduced with DTT at room temperature for 5 min and analyzed by mass spectrometry. Percent conjugation was calculated using equation 1.
Maleimide hydrolysis data were also analyzed in units of molar concentration to determine kinetic constants. Pseudo 1st order rate constants were determined from the slopes of curves generated from plotting ln [maleimide] versus time and linear regression analysis.

[3] = pH 7.0; cited from earlier work
[4] = pH 7.0; cited from earlier work; remark: listed apart in the source
[5] = cited from earlier work
[6] = BME challenge assay: sensitivity of PEG-biotin T289C mAb conjugates to thiol exchange in buffer containing thiols; type: physicochemical; conditions: pH 7.2, 37° C.
Protocol: Biotin-mAb conjugates were incubated in aqueous buffer containing β-mercaptoethanol (BME) to challenge the thiosuccinimide linkage against deconjugation. x-Maleimide-PEG-biotins were conjugated to mAb containing the T289C mutation as described above with minor modification. Conjugation reactions were performed at 1 equivalent x-PEG-maleimide:thiol for 15 min at 22° C. followed immediately by dilution to 0.2 mg/mL (1.33 μM mAb) with 1×PBS pH 7.2 containing 0.5 mM EDTA. The N-acetyl cysteine quenching step was omitted. For BME-containing samples, BME was added to a final concentration of 1% v/v (143 mM). Samples were further incubated at 37° C. under ambient atmosphere without stirring. Aliquots were removed at various time points, sterile filtered, reduced with DTT and then analyzed by LC/MS. Percent conjugated mAb and thiosuccinimide hydrolysis were determined from peak heights of mass spectra using Equation 1 and Equation 2, respectively. Deconjugated mAb and thiosuccinimide hydrolysis data were plotted as ln [concentration] vs. time (s) to obtain the pseudo-first order rate constants from the slope of the bestfit line.

[7] = Stability of mAb-biotin conjugates in the presence of free thiol (BME) after mild hydrolysis; type: physicochemical; conditions: pH 7.2, 37° C.
Protocol: Biotin-mAb conjugates were incubated in aqueous buffer containing β-mercaptoethanol (BME) to challenge the thiosuccinimide linkage against deconjugation. In this experiment, thiosuccinimide conjugates were subjected to a brief incubation at mildly basic conditions to facilitate thiosuccinimide hydrolysis before the stability challenge. x-Maleimide-PEG-biotins were conjugated to mAb containing the T289C mutation as described above with minor modification. Conjugation reactions were performed at 1 equivalent x-PEG-maleimide:thiol for 15 min at 22° C. followed quenching with N-acetyl cysteine (100 eq rel. to mAb) and further reaction for 5 minutes. Reaction mixtures were adjusted to pH 8.6 by addition of 10% v/v sodium phosphate (1M, dibasic) and then incubated at 37° C. for 1 hr. Reactions were then dialyzed against PBS (pH 7.2) containing 0.5 mM EDTA for 24 hr at 4° C. After dialysis, mAb concentrations were confirmed by A280 measurement (NanoDrop) and samples were diluted to 0.2 mg/mL (1.33 μM mAb) with 1×PBS pH 7.2 containing 0.5 mM EDTA. For BME-containing samples, BME was added to a final concentration of 1% v/v (143 mM). […] Aliquots were removed at various time points, sterile filtered, reduced with DTT and then analyzed by LC/MS. Percent conjugated mAb and thiosuccinimide hydrolysis was determined from peak heights of mass spectra using Equation 1 and Equation 2, respectively. […]

[8] = Thiosuccinimide hydrolysis kinetics for PEG-BCN conjugates; type: physicochemical; conditions: mAb-PEG-BCN conjugates at T289C, pH 7.2, 22° C.
Protocol: x-Maleimide-PEG-BCN-mAb conjugates were incubated in buffer solutions and monitored by LC/MS over time to observe thiosuccinimide hydrolysis. Conjugated T289C mAbs were diluted to 0.22 mg/mL with 1×PBS containing 0.5 mM EDTA, pH 7.2 and then dithiothreitol was added (0.5 M stock in water) to achieve a final concentration of 42 mM. Samples were placed into the LC/MS autosampler at 22° C. and injected periodically. Thiosuccinimide hydrolysis was confirmed by addition of 18 amu to the mAb conjugate peak in the mass spectrum. Semi-quantitative analysis of hydrolysis was performed using peak intensities in deconvoluted mass spectra and equation 3, which includes background subtraction using the T=0 measurement. Data was then converted into loss of thiosuccinimide (M) over time and plotted as ln [thiosuccinimide] vs seconds. The slope of the best fit line yielded the pseudo first-order rate constant for thiosuccinimide hydrolysis.

[9] = Reactivity of mAb-BCN conjugate with AC4GlcNAz after storage; type: physicochemical
Protocol: N-phenyl-maleimide-PEG-BCN-mAb conjugate (100 μL of 1.3, mg/mL solution in PBS with 0.5 mM EDTA, 0.87 nmol) was combined with AC4GlcNAz (1 μL of 500 mM stock in DMSO, 500 nmol). The reaction solution was incubated at room temperature without stirring for 1 hr at 22° C. For long-term reactivity studies, mAb-BCN conjugate was stored at 4° C. in PBS with 0.5 mM EDTA, pH 7.2 and aliquots were removed and reacted with AC4GlcNAz as described above. Conjugates were analyzed by reduced glycosylated mass spectrometry and conjugation efficiency was determined using equation 1.

Row | Compound | Psuedo first order rate constant (kobs), maleimide hydrolysis ([2]; pH 7.4, 22° C.) | Psuedo first order rate constant (kobs), maleimide hydrolysis ([2]; pH 8.6, 22° C.) | half-life at 1 mM ([2]; pH 7.4, 22° C.) | half-life at 1 mM ([2]; pH 8.6, 22° C.) | Second order rate constant (k2) ([1]; pH 5.5, 22° C.) | Second order rate constant (k2) ([1]; pH 7.4, 22° C.) | Second order rate constant (k2) ([1]; pH 8.6, 22° C.) | further results
1 | 2-fluoro-5-maleimidophenyl-PEG7-biotin [F-phenyl maleimide-PEG-biotin] | – | – | – | – | – | – | – | thiol conjugation is complete in ([1]; pH 8.6): 15 s
2 | O=C(CCCCC1SCC2NC(=O)NC21)NCCOCCOCCOCCOCCOCCOCCOCCNC(=O)CCN1C(=O)C=CC1=O (centres unmarked) [Alkyl maleimide-PEG-biotin, maleimidoproprionyl-PEG7-biotin, reference compound] | 2.3e-05 s⁻¹ | 0.0002 s⁻¹ | 462 min | 60 min | 13 M⁻¹ s⁻¹ | 500 M⁻¹ s⁻¹ | ~28000 M⁻¹ s⁻¹ | –
3 | O=C(CCCCC1SCC2NC(=O)NC21)NCCOCCOCCOCCOCCOCCOCCOCCNC(=O)c1cc(N2C(=O)C=CC2=O)ccc1F (centres unmarked) [F-phenyl maleimide-PEG-biotin, 2-fluoro-5-maleimidophenyl-PEG7-biotin] | 0.00017 s⁻¹ | 0.0019 s⁻¹ | 66 min | 6 min | 55.4 M⁻¹ s⁻¹ | 4500 M⁻¹ s⁻¹ | ~39000 M⁻¹ s⁻¹ | –
4 | CCN1C(=O)C=CC1=O [N-ethyl maleimide] | – | – | – | – | – | – | – | k2, reaction with β-mercaptoethanol [3]: 710 M⁻¹ s⁻¹; k2, reaction with cysteine [4]: 1620 M⁻¹ s⁻¹
5 | O=C1C=CC(=O)N1c1ccccc1 [N-phenyl maleimide] | – | – | – | – | – | – | – | kobs, hydrolysis ([5]; pH 7.6, 25° C.): 7e-05 s⁻¹
6 | O=C(CCCCC1SCC2NC(=O)NC21)NCCOCCOCCOCCOCCOCCOCCOCCNC(=O)Cc1ccc(N2C(=O)C=CC2=O)cc1 (centres unmarked) [Phenyl maleimide-PEG-biotin, maleimidophenylacetyl-PEG7-biotin] | 8.5e-05 s⁻¹ | 0.00076 s⁻¹ | 138 min | 18 min | 23.8 M⁻¹ s⁻¹ | 1300 M⁻¹ s⁻¹ | ~34000 M⁻¹ s⁻¹ | –
7 | O=C1C=CC(=O)N1 [maleimide] | – | – | – | – | – | – | – | kobs, hydrolysis ([5]; pH 8.38, 30° C.): 0.000151 s⁻¹
8 | N-fluorophenyl thiosuccinimide | – | – | – | – | – | – | – | Max deconjugation + BME ([6]; 1% v/v BME): 10%; Max deconjugation − BME ([6]; without BME): None; Max deconjugation + BME ([7]; 1% v/v BME): None; Max deconjugation − BME ([7]; without BME): None
9 | Phenyl thiosuccinimide | – | – | – | – | – | – | – | Psuedo first order rate constant (kobs), thiosuccinimide hydrolysis [8]: 1.9e-05 s⁻¹; Azide conjugation (BCN reactivity) ([9]; 1 day storage at 4° C.): quantitative; Azide conjugation (BCN reactivity) ([9]; 4 days storage at 4° C.): quantitative; Azide conjugation (BCN reactivity) ([9]; 7 days storage at 4° C.): quantitative; Azide conjugation (BCN reactivity) ([9]; 10 days storage at 4° C.): quantitative; Azide conjugation (BCN reactivity) ([9]; 15 days storage at 4° C.): quantitative; Azide conjugation (BCN reactivity) ([9]; 21 days storage at 4° C.): quantitative; time without loss of BCN reactivity ([9]; after conjugation and storage at 4° C.): > 21 days
